What all share (type): physicochemical
The nature of data set [1]: Comparative study of compositions with end-capped vs non-end capped EO/PO block polymer (7 and 14 days AHS). How it is done:
Comparative Study of the Compositions with EO/PO Block Copolymer End-Capped with Methyl Group and Non-End Capped EO/PO Block Polymer
The composition described in Example-1 (having EO/PO block copolymer end-capped with methyl group) prepared according to the process disclosed in the present invention was tested against the composition described in Example-3 (having non-alkyl end-capped EO/PO block copolymer). The objective of study was to determine the effect EO/PO block copolymer end-capped with alkyl group in preventing degradation of active ingredients and to impart overall stability to the composition.

Data set [2] can be described thus: Stability study of active ingredients in various storage conditions (unpacked / water soluble pouch). The following applies: composition of Example-1; for % Degradation: 14 days AHS at 54° C. vs ambient; for 14 D AHS / AMB: content of active; for 14 D AHS: 14 days AHS at 54° C.; for AMB: ambient. How it is done:
Stability Study of Active Ingredients in Various Storage Conditions
The composition described in Example-1 prepared according to the process disclosed in the present invention was tested to determine the stability of active ingredients when subjected to various storage conditions. Degradation of active ingredients was calculated at ambient conditions and in 14 days AHS at 54° C. for the composition kept as unpacked and as packed in water soluble pouch. Acetamiprid and Acephate both found to be stable in unpacked as well as when packed in the water soluble pouch.

A short description of data set [3]: Stability of active ingredients in real time study (19 months ambient). Conditions: composition of Example-2. An excerpt: Stability of Active Ingredients Observed in Real Time Study
The composition prepared in Example-2 according to the process disclosed in the present invention is kept for real time study to observe degradation pattern of active ingredients. The composition was kept for 19 months in ambient conditions. Acetamiprid and Acephate found to be very stable with 3.5% and 2.31% degradation respectively. This resulted into an overall stable agrochemical composition.

Data set [4] in a line: Study of chloronicotinyl compositions with and without EO/PO block copolymer end-capped with methyl group (7 and 14 days AHS). How it is done: Study of Chloronicotinyl Compositions Having EO/PO Block Copolymer End-Capped with Methyl Group and without Having EO/PO Block Polymer End-Capped with Methyl Group
The composition described in Example-4 (having EO/PO block copolymer end-capped with methyl group) prepared according to the process disclosed in the present invention was tested against the composition described in Example-7 (having no EO/PO block copolymer). The objective of study was to determine the effect of EO/PO block copolymer end-capped with alkyl group on chloronicotinyl compounds in preventing degradation of the compositions as well as the overall stability to the compositions.

[5] abbreviates: 19 months in ambient conditions.

These results are taken from patent US20200396997A1, “A STABLE AGROCHEMICAL COMPOSITION” (priority 2018, published 2020).

Take `COP(=O)(NC(C)=O)SC` (centres unmarked) [Acephate, N-(Methoxy-methylsulfanylphosphoryl) acetamide]: the Degradation observed in data set [1] (7 days AHS, active in composition comprising EO/PO block copolymer end-capped with methyl group (Example-1)) stood at 0.64%; in data set [1] (7 days AHS, active in composition comprising non end-capped EO/PO block copolymer (Example-3)), 1.5%; in data set [1] (14 days AHS, active in composition comprising EO/PO block copolymer end-capped with methyl group (Example-1)), 1.02%; in data set [1] (14 days AHS, active in composition comprising non end-capped EO/PO block copolymer (Example-3)) it was 1.92%. Moreover, the “% Degradation” value is on record as 1.29% in data set [2] (Packed in Water Soluble Pouch) and 0.75% in data set [2] (Without Packing). Moreover, the “stability of active (in words)” value was “stable” in data set [2] (unpacked as well as packed in the water soluble pouch) and “very stable” in data set [3] (setting [5]). Further, the results for the “14 D AHS” value in data set [2] (Packed in Water Soluble Pouch) and in data set [2] (Without Packing) were 87.13 and 87.81, respectively. Moreover, the AMB in data set [2] (Packed in Water Soluble Pouch) and in data set [2] (Without Packing) was 88.59 in each case. For the same molecule, the degradation in data set [3] (19 Month Real Time) is 3.50; in data set [3] (setting [5]), 2.31%. Besides, the “19 Month Real Time” value in data set [3] (content of active, 19 months in ambient conditions) was 85.03. Also, the Ambient in data set [3] (content of active, start) turned out to be 88.11.
Regarding `N#C/N=C1\SCCN1Cc1ccc(Cl)nc1` [Thiacloprid], the Degradation observed in data set [4] (7 days AHS, active in composition comprising EO/PO block copolymer end-capped with methyl group (Example-4)) was determined as 0.58%; in data set [4] (7 days AHS, active in composition prepared without using end-capped EO/PO block copolymer (Example-7)) it was 5.1%; in data set [4] (14 days AHS, active in composition comprising EO/PO block copolymer end-capped with methyl group (Example-4)) it was 0.93%; in data set [4] (14 days AHS, active in composition prepared without using end-capped EO/PO block copolymer (Example-7)) it was 7.91%.
